Patent US20060046966A1, “Antipicornaviral compounds and compositions, their pharmaceutical uses, and materials for their synthesis” (Agouron Pharmaceuticals, Inc., priority 1998, published 2006)
pEC50: −log10 of the molar value. Like-named read-outs stand apart in the source and are kept apart here.

Columns and labels:
[1] = system: HRV-14; assay: Antirhinoviral H1-HeLa cell culture assay, HRV-14; assay type: cell-based, human rhinovirus; details: HRV serotype-14, H1-HeLa cells
Description: (§1) In this cell protection assay, the ability of compounds to protect cells against HRV infection was measured by the XTT dye reduction method, which is described in Weislow et al., J. Natl. Cancer Inst. 1989, vol. 81, 577-586.
(§2) H1-HeLa cells were infected with HRV-14 at a multiplicity of infection (m.o.i.) of 0.13 (virus particles/cell) or mock-infected with medium only. Infected or mock-infected cells were resuspended at 8×10^5 cells per mL, and incubated with appropriate concentrations of the compounds to be tested. Two days later, XTT/PMS was added to test plates and the amount of formazan produced was quantified spectrophotometrically at 450/650 nm. The EC50 value was calculated as the concentration of compound that increased the percentage of formazan production in compound-treated, virus-infected cells to 50% of that produced by compound-free, mock-infected cells. The 50% cytotoxic dose (CC50) was calculated as the concentration of compound that decreased the percentage of formazan produced in compound-treated, mock-infected cells to 50% of that produced by compound-free, mock-infected cells. The therapeutic index (TI) was calculated by dividing the CC50 value by the EC50 value.
(§3) All strains of human rhinovirus (HRV) for use in this assay were purchased from American Type Culture Collection (ATCC), except for HRV serotype-14 (produced from the infectious cDNA clone constructed by Dr. Robert Rueckert, Institute for Molecular Virology, University of Wisconsin, Madison, Wis.). HRV stocks were propagated and viral assays were performed in H1-HeLa cells (ATCC). Cells were grown in minimal essential medium with 10% fetal bovine serum, available from Life Technologies (Gaithersburg, Md.).
(§4) The compounds were tested against control compounds WIN 51711, WIN 52084, and WIN 54954 (obtained from Sterling-Winthrop Pharmaceuticals), Pirodavir (obtained from Janssen Pharmaceuticals), and Pleconaril (prepared according to the method described in Diana et al., J. Med. Chem 1995, vol. 38, 1355). Antiviral data obtained for the test compounds are shown in Tables 1 and 3, where all data are for HRV serotype-14 unless otherwise noted in parentheses.

[2] = system: HRV (89); assay: Antirhinoviral H1-HeLa cell culture assay, HRV serotype 89; assay type: cell-based, human rhinovirus; details: H1-HeLa cells, XTT
Description: as §1, §2, §3, §4

[3] = system: HRV (2); assay: Antirhinoviral H1-HeLa cell culture assay, HRV serotype 2; assay type: cell-based, human rhinovirus; details: H1-HeLa cells, XTT
Description: as §1, §2, §3, §4

[4] = system: HRV (1A); assay: Antirhinoviral H1-HeLa cell culture assay, HRV serotype 1A; assay type: cell-based; details: Human rhinovirus sp., H1-HeLa cells, XTT
Description: as §1, §2, §3, §4

[5] = biological target: T1, rhinovirus 3C protease from HRV serotype-14 (Human rhinovirus 14, UniProt P03303); assay: Inhibition of rhinovirus 3C protease (FRET assay), serotype 14; assay type: biochemical; details: HRV serotype-14 3C protease, progress curves in enzyme start experiments; for kinact/KI: read-out: Protease Inhibition kobs/[I]
T1 construct: Recombinant rhinovirus 3C proteases; made in house
T1 sequence (P03303 1538-1719): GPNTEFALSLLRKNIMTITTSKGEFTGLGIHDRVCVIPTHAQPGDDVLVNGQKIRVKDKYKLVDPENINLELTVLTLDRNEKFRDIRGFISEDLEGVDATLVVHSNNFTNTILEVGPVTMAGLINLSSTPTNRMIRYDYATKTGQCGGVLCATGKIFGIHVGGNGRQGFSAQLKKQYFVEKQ
Description: (§5) Stock solutions (50 mM, in DMSO) of various compounds were prepared; dilutions were in the same solvent. Recombinant rhinovirus 3C proteases (see Birch et al., “Purification of recombinant human rhinovirus 14 3C protease expressed in Escherichia coli,” Protein Expr. Pur. 1995, 6(5), 609-618) from serotypes 14, 16, and 2 were prepared by the following standard chromatographic procedures: (1) ion exchange using Q Sepharose Fast Flow from Pharmacia; (2) affinity chromatography using Affi-Gel Blue from Biorad; and (3) sizing using Sephadex G-100 from Pharmacia. Each assay sample contained 2% DMSO, 50 mM tris pH 7.6, 1 mM EDTA, a test compound at the indicated concentration, approximately 1 μM substrate, and 50-100 nM protease. The kobs/I values were obtained from reactions initiated by addition of enzyme rather than substrate. RVP activity was measured in the fluorescence resonance energy transfer assay. The substrate was (N-terminal) DABCYL-(Gly-Arg-Ala-Val-Phe-Gln-Gly-Pro-Val-Gly)-EDANS. In the uncleaved peptide, the EDANS fluorescence was quenched by the proximal DABCYL moiety. When the peptide was cleaved, the quenching was relieved, and activity was measured as an increase in fluorescence signal. In Table 1, all data are for rhinovirus 3C protease from HRV serotype-14 (produced from the infectious cDNA clone constructed by Dr. Robert Rueckert, Institute for Molecular Virology, University of Wisconsin, Madison, Wis.). […] The data in the column designated kobs/[I] were measured from progress curves in enzyme start experiments.

[6] = system: HRV (39); assay: Antirhinoviral H1-HeLa cell culture assay, HRV serotype 39; assay type: cell-based, human rhinovirus; details: H1-HeLa cells, XTT
Description: as §1, §2, §3
(§6) The compounds were tested against control compounds WIN 51711, WIN 52084, and WIN 54954 (obtained from Sterling-Winthrop Pharmaceuticals), Pirodavir (obtained from Janssen Pharmaceuticals), and Pleconaril (prepared according to the method described in Diana et al., J. Med. Chem 1995, vol. 38, 1355). […]

[7] = system: HRV (17); assay: Antirhinoviral H1-HeLa cell culture assay, HRV serotype 17; assay type: cell-based, human rhinovirus; details: H1-HeLa cells, XTT
Description: as §1, §2, §3, §6

[8] = system: HRV (3); assay: Antirhinoviral H1-HeLa cell culture assay, HRV serotype 3; assay type: cell-based, human rhinovirus; details: H1-HeLa cells, XTT
Description: as §1, §2, §3, §6

[9] = system: HRV (13); assay: Antirhinoviral H1-HeLa cell culture assay, HRV serotype 13; assay type: cell-based, human rhinovirus; details: H1-HeLa cells, XTT
Description: as §1, §2, §3, §6

[10] = system: HRV (10); assay: Antirhinoviral H1-HeLa cell culture assay, HRV serotype 10; assay type: cell-based, human rhinovirus; details: H1-HeLa cells, XTT
Description: as §1, §2, §3, §4

[11] = system: HRV (9); assay: Antirhinoviral H1-HeLa cell culture assay, HRV serotype 9; assay type: cell-based, human rhinovirus; details: H1-HeLa cells, XTT
Description: as §1, §2, §3, §6

[12] = Cytotoxicity in mock-infected H1-HeLa cells (antirhinoviral assay, XTT); assay type: cell-based; details: human, 50% cytotoxic dose, two days
Description: as §2, §3

[13] = biological target: T2, rhinovirus 3C protease, serotype 2 (Human rhinovirus 2, UniProt P04936); assay: Inhibition of rhinovirus 3C protease (FRET assay), serotype 2; assay type: biochemical; details: Rhinovirus Serotype (2) 3C protease; read-out: kobs/I
T2 construct: Recombinant rhinovirus 3C proteases; made in house
T2 sequence (P04936 1508-1690): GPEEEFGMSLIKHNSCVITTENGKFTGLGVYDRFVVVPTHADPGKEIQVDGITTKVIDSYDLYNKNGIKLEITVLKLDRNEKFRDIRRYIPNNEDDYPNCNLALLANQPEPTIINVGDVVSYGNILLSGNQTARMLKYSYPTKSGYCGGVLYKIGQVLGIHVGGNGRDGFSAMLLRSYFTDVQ
Description: as §5

[14] = Rhinovirus B, HRV14, H1-HeLa, Table 1, XTT dye reduction, read-out: Cell Protection EC50
[15] = Rhinovirus B, HRV14, H1-HeLa, Table 3, XTT, read-out: EC50

Row | Compound | pEC50 [1, 14] | pEC50 [1, 15] | kinact/KI [5] | CC50 at 2 days [12] | also measured
1 | CCOC(=O)/C=C/[C@H](CCC(N)=O)NC(=O)[C@H](Cc1ccccc1)NC(=O)[C@H](CC(C)C)NC(=O)c1cc(C)on1 [Compound A-1, Ethyl-3-((5′-Methylisoxazole-3′-carbonyl)-L-Leu-L-Phe-L-Gin)-E-Propenoate] | 6.60 | 6.60 | 260000 M⁻¹ s⁻¹ | – | pEC50 ([2]; Human rhinovirus sp.): 6.66; pEC50 ([3]; Human rhinovirus sp., H1-HeLa): 6.39; pEC50 [4]: 6.00
2 | CCOC(=O)/C=C/[C@H](C[C@@H]1CCNC1=O)NC(=O)[C@H](Cc1ccc(F)cc1)NC(=O)[C@@H](NC(=O)c1cc(C)on1)C(C)(C)C [Compound A-7, Ethyl-3-{(5′-Methylisoxazole-3′-carbonyl)-L-α-(t-Butyl-Gly)-L-(4-F-Phe)-L-((S)-Pyrrol-Ala)}-E-Provenoate] | 8.40 | – | 980000 M⁻¹ s⁻¹ | – | pEC50 [6]: 7.70; pEC50 [7]: 7.70; pEC50 [8]: 7.70; pEC50 [9]: 7.52; pEC50 [2]: 7.70; pEC50 [10]: 7.22; pEC50 [3]: 7.70; pEC50 [11]: 7.40
3 | CCOC(=O)/C=C/[C@H](CCC(N)=O)NC(=O)[C@H](Cc1ccccc1)NC(=O)[C@@H](NC(=O)c1cccs1)C(C)(C)C [Compound A-14] | 6.32 | 6.32 | 54500 M⁻¹ s⁻¹ | > 100 µM | –
4 | CCOC(=O)/C=C/[C@H](CCC(N)=O)NC(=O)[C@H](Cc1ccc(C)cc1)NC(=O)[C@@H](NC(=O)C1SCCS1)C(C)(C)C [Compound A-15] | 6.66 | 6.66 | 237000 M⁻¹ s⁻¹ | > 100 µM | pEC50 ([10]; Human rhinovirus sp., H1-HeLa): 5.57; pEC50 [4]: 5.15
5 | CCOC(=O)/C=C/[C@H](CCC(N)=O)NC(=O)[C@H](Cc1ccc(C)cc1)NC(=O)[C@@H](NC(=O)c1ccc[nH]1)C(C)(C)C [Compound A-16] | 6.35 | 6.35 | 173000 M⁻¹ s⁻¹ | > 100 µM | pEC50 ([10]; Human rhinovirus sp., H1-HeLa): 5.35; pEC50 [4]: 5.32
6 | CCOC(=O)/C=C/[C@H](CCC(N)=O)NC(=O)[C@H](Cc1ccc(F)cc1)NC(=O)[C@@H](NC(=O)C1SCCS1)C(C)(C)C [Compound A-17] | 7.22 | 7.22 | 167000 M⁻¹ s⁻¹ | > 100 µM | pEC50 ([10]; Human rhinovirus sp., H1-HeLa): 5.48; pEC50 [4]: 5.74
7 | CC(C)[C@H](NC(=O)C1SCCS1)C(=O)N[C@@H](Cc1ccc(F)cc1)C(=O)N[C@H](/C=C/C(=O)OCc1cccnc1)CCC(N)=O [Compound A-18] | 5.82 | 5.82 | 292000 M⁻¹ s⁻¹ | > 100 µM | –
8 | CCOC(=O)/C=C/[C@H](CCC(N)=O)NC(=O)[C@H](Cc1ccccc1)NC(=O)[C@H](CC(C)C)NC(=O)[C@@H]1C=CCN1 [Compound A-19] | 4.60 | 4.60 | 27800 M⁻¹ s⁻¹ | > 100 µM | –
9 | CCOC(=O)/C=C/[C@H](CCC(N)=O)NC(=O)[C@H](Cc1ccccc1)NC(=O)[C@H](CC(C)C)NC(=O)c1cc(C)oc1C [Compound A-20] | 4.90 | 4.90 | 1020 M⁻¹ s⁻¹ | > 100 µM | –
10 | CCOC(=O)/C=C/[C@H](CCC(N)=O)NC(=O)[C@H](Cc1ccccc1)NC(=O)[C@H](CC(C)C)NC(=O)c1nc(C)c[nH]1 [Compound A-21] | 5.60 | 5.60 | 17800 M⁻¹ s⁻¹ | > 100 µM | –
11 | CCOC(=O)/C=C/[C@H](C[C@@H]1CCNC1=O)NC(=O)[C@H](Cc1ccccc1)NC(=O)[C@H](CC(C)C)NC(=O)OCc1ccccc1 [Compound A-24, Ethyl-3-{Cbz-L-Leu-L-Phe-L-((S)-Pyrrol-Ala)}-E-Propenoate] | 7.00 | 7.00 | 257000 M⁻¹ s⁻¹ | – | kinact/KI [13]: 31000 M⁻¹ s⁻¹
12 | CCOC(=O)/C=C/[C@H](C[C@@H]1CCCNC1=O)NC(=O)[C@H](Cc1ccccc1)NC(=O)[C@H](CC(C)C)NC(=O)OCc1ccccc1 [Compound A-26, Ethyl-3-{Cbz-L-Leu-L-Phe-L-((S)-Piper-Ala)}-E-Provenoate] | 7.52 | 7.52 | 239000 M⁻¹ s⁻¹ | – | –
13 | CCOC(=O)/C=C/[C@H](C[C@H]1CCNC1=O)NC(=O)[C@H](Cc1ccccc1)NC(=O)[C@H](CC(C)C)NC(=O)OCc1ccccc1 [Compound A-27, Ethyl-3-{Cbz-L-Leu-L-Phe-L-((R)-Pyrrol-Ala)}-E-Propenoate] | 5.80 | 5.80 | 18000 M⁻¹ s⁻¹ | – | –
14 | CCOC(=O)/C=C/[C@H](CCC(N)=O)NC(=O)[C@@H](CC(=O)[C@@H](NC(=O)c1cc(C)on1)C(C)C)Cc1ccc(F)cc1 [Compound B-1, Ethyl-3-[(5′-Methylisoxazole-3′-carbonyl)-L-ValΨ(COCH2)-L-(4-F-Phe)-L-Gln}-E-Propenoate] | 7.00 | 7.00 | 240000 M⁻¹ s⁻¹ | – | pEC50 ([10]; Human rhinovirus sp., H1-HeLa): 6.40; pEC50 [4]: 6.52
15 | Cc1cc(C(=O)N[C@H](C(=O)C[C@@H](Cc2ccc(F)cc2)C(=O)N[C@H](/C=C2\CCOC2=O)C[C@@H]2CCNC2=O)C(C)C)no1 [Compound B-3, 2-{(5′-Methylisoxazole-3′-carbonyl)-L-ValΨ(COCH2)-L-(4-F-Phe)-L-((S)-Pyrrol-Ala)}-E-(α-Vinyl-γ-Butyrolactone)] | 6.74 | 6.74 | 465000 M⁻¹ s⁻¹ | – | –
16 | CCOC(=O)/C=C/[C@H](C[C@@H]1CCCNC1=O)NC(=O)[C@@H](CC(=O)[C@@H](NC(=O)c1cc(C)on1)C(C)C)Cc1ccc(F)cc1 [Compound B-4, Ethyl-3-[(5′-Methylisoxazole-3′-carbonyl)-L-ValΨ(COCH2)-L-(4-F-Phe)-L-((S)-Piper-Ala)}-E-Propenoate] | > 7.52 | > 7.52 | 500000 M⁻¹ s⁻¹ | – | –
17 | CCOC(=O)/C=C/[C@H](CCC(N)=O)NC(=O)[C@H](Cc1ccc(F)cc1)OC(=O)[C@@H](NC(=O)c1cc(C)on1)C(C)C [Compound C-1, Ethyl-3-{(5′-Methylisoxazole-3′-carbonyl)-L-Val-O-L-(4-F-Phe)-L-Gln}-E-Propenoate] | 7.00 | 7.00 | 68400 M⁻¹ s⁻¹ | – | –
18 | Ethyl-3-((5′-Methylisoxazole-3′-carbonyl)-L-Leu-NCH3-L-Phe-L-Gln)-E-Provenoate [Compound A-10] | – | – | – | – | pEC50 ([1]; Table 1, XTT dye reduction, read-out: Cell Protection EC50): 6.85; pEC50 ([1]; Table 3, XTT, read-out: EC50): 6.85; Protease Inhibition kobs/[I] [5]: 108,000 M^−1sec^−1
